Positions count from the first letter of the chain named. Entries after “also recorded” stand apart in the source; their conditions may differ.

What is called IC50 is the midpoint of a concentration-inhibition curve. High values mean weaker potency, low ones greater potency. As a reminder, the Km is the concentration of substrate that gives half-maximal velocity.

Assay [1] concerns wild-type Aurora A-expressing NIH3T3 cells. In words: Soft agar colony formation, wild-type Aurora A-NIH3T3 cells. In kind it is cell-based. As to conditions: 0.5 μM (identical conditions). The protocol: (§1) Briefly equal volumes of nobel agar (1%, DNA grade) and 2×RPMI 1640 (with 20% FBS) were mixed at 40° C. to make 0.5% agar in six-well tissue culture plates (Corning) as a base agar. Cells (0.1 ml of 2.0×10^5/ml) were suspended in 3 mL of 2×RPMI 1640 (with 20% FBS) and 3 ml of 0.7% agar. 1.5 ml of this suspension was added to each well (as 0.35% top agar) with final concentration of 5,000 cells per well. Top agar was covered with 500 μl of culture media. Plates were incubated at 37° C. for 3 to 4 weeks. Fresh media was added every three days.
(§2) For 1-NM-PPI experiments, fresh media containing 1-NM-PP1 (100 nM) or DMSO were added to the cells every 3 days. Colony formation was observed by light phase-contrast microscope and visually after staining with 0.5 ml of 0.01% crystal violet in PBS for 45 min at room temperature. Experiments were repeated in quadruplicate, two independent times to ensure the reproducibility of the results.

The next assay addresses T1, wild-type Aurora A (Mus musculus, UniProt P97477).
T1 construct: 6-His; made in house; host or cells: Sf9 insect cells (baculovirus, Bac-to-Bac)
T1 sequence (P97477 1-395): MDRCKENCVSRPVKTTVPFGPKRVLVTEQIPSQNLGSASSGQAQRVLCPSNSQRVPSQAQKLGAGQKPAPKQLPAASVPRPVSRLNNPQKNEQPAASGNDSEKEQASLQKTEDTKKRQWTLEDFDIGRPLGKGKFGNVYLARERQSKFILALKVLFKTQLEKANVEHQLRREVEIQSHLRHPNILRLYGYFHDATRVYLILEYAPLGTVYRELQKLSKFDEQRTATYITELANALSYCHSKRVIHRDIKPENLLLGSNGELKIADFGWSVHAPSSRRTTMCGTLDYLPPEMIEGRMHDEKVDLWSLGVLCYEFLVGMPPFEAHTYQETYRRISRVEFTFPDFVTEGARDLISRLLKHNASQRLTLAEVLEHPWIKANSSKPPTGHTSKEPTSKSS
T1 sequence (Q9ULW0 1-747 partner): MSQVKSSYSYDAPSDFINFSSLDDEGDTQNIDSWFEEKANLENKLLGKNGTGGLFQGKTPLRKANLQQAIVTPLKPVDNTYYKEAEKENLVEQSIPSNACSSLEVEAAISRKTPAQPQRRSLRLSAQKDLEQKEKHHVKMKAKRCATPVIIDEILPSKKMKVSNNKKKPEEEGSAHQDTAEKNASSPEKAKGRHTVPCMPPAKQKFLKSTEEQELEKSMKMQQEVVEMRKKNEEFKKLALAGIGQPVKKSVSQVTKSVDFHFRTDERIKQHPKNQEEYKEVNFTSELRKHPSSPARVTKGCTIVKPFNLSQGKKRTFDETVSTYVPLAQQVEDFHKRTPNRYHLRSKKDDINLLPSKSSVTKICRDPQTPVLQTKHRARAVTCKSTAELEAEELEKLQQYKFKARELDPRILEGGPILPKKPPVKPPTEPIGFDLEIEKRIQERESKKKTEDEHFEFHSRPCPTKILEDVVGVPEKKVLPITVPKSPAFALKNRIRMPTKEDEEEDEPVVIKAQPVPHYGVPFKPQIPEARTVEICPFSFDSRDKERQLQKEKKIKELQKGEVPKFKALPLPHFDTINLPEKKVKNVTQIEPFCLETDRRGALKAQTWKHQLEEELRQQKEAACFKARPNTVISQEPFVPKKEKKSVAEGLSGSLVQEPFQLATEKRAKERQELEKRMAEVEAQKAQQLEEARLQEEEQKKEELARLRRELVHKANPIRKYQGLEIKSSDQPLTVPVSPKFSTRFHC
Briefly: In vitro kinase assay with wild-type Aurora A and TPX2. In kind it is biochemical, murine. The conditions noted are these: even at higher concentrations. The procedure:
(§3) For in vitro labeling, Aurora A/TPX2 complex (on beads) was pre-incubated with 10 μM cold ATP for 10 min to activate the kinase. The beads were washed twice with kinase buffer, and then subjected to kinase assay with 2-5 μg of recombinant protein (such as PHLDA) and 1 μCi of [γ-^32P] ATP. Reactions were terminated by adding SDS sample buffer, separated by SDS-PAGE gel, transferred to PVDF membrane and exposed to Biomax MS film. Aurora A kinase assays were conducted using 1 μCi of [γ-^32P] ATP and 3 μg of Aurora A substrate peptide in a final volume of 30 μl at 30° C. as reported before (Sun, et al, (2008a) Mol. Biol. Cell 19, 3052-3069).
(§4) IC50 values were determined by fitting the data to a sigmoidal dose response curve using GraphPad Prism 4.0 software. Km and Vmax values were derived from the assay described above using various concentrations of AA peptide substrate and ATP. Km and Vmax values were determined using GraphPad Prism 4.0 software.

In another assay the test system is AA-as7-MDA cells. Briefly: Western blot of protein levels after 1-NM-PP1, AA-as7-MDA cells. In kind it is cell-based. The conditions noted are these: for Aurora A levels: AA-as7-MDA cells treated with inhibitor. The procedure: Aurora A can regulate its substrates using either its kinase activity or scaffolding function. Therefore, to dissect the mechanism further, AA-MDA and AA-as7-MDA were treated with 1-NM-PP1 for 12 h and PHLDA1 expression analyzed.
AA-MDA and AA-as7 MDA cells were treated with either DMSO or 1-NM-PP1 (250 nM) for 12 h, followed by cell lysis. For MLN8237 experiment, MDA cells were treated with 1 μM MLN8237 for 12 h.
Cells were harvested and lysed in modified RIPA buffer, supplemented with protease inhibitors. Equal amounts of cell extracts were then used to conduct western blot.
Aurora A-mediated phosphorylation of its substrates often promotes their degradation (e.g. p53, PHLDA1) or stabilization (ASAP1). Therefore, we investigated whether Aurora A exerts control over LIMK2 level. Aurora A was transiently depleted in MDA cells using two different shRNAs, causing concomitant decrease in LIMK2 level (FIG. 6A). Wild-type and mutant AA (AA-as7) were stably overexpressed in MDA cells (AA-MDA and AA-as7-MDA cells respectively), leading to considerable increase in LIMK2 levels (FIG. 6B), thereby confirming that Aurora A positively regulates LIMK2 levels. Aurora A can regulate its substrates using either its kinase activity or scaffolding function. Aurora A regulates p53 levels by phosphorylation, but regulates ASAP levels through the scaffolding function. Therefore, to dissect the mechanism by which Aurora A regulates LIMK2, AA-MDA and AA-as7-MDA cells were treated with 1-NM-PP 1 for 12 h and LIMK2 expression analyzed.

The target of assay [2] is T2, AA-as7 kinase (Aurora A LI85V, L201G) (Mus musculus, UniProt P97477, L185V/L201G).
T2 construct: the Aurora A mutant is the double mutant Aurora A (AA-as7); 6-His; made in house; host or cells: Sf9 insect cells (baculovirus, Bac-to-Bac)
T2 sequence (P97477 1-395 L185V/L201G): T1 sequence (P97477 1-395) with L185V, L201G
In words: In vitro kinase assay with AA-as7 and TPX2. In kind it is biochemical, murine. The procedure:
as §3, §4

In a further assay the test system is AA-as7-NIH3T3 cells. In words: Soft agar colony formation, AA-as7-NIH3T3 cells. In kind it is cell-based. The conditions noted are these: 0.5 μM. The protocol: as §1, §2
For assay [3], the target named is Aurora B-as7 (L138V, L154G-AB) kinase (Homo sapiens, UniProt Q96GD4, L138V/L154G). Briefly: In vitro kinase assay with AB-as7. In kind it is biochemical. As to conditions: phosphodonor as labelled.
Sequence of Aurora B-as7 (L138V, L154G-AB) kinase (Q96GD4 whole entry L138V/L154G): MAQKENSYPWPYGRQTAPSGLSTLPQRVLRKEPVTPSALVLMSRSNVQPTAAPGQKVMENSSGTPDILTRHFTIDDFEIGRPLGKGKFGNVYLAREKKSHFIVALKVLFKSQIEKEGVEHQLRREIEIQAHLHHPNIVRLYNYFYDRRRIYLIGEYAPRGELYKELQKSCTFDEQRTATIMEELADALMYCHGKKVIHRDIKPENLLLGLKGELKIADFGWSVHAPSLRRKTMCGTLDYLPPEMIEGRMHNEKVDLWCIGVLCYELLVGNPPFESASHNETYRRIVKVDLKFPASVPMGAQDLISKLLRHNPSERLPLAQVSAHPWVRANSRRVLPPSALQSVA
Assay [4] relates to wt kinases present in the MDA cell lysate. In words: In vitro kinase reaction with MDA cell lysate and [γ-32P] Phenethyl-ATP. It counts as biochemical. The conditions noted are these: cell lysate alone, without AA-as7/TPX2. The protocol: To prepare a labeled sample for 2D gel electrophoresis, kinase reactions with whole cell lysate or fractionated lysate were carried out as published before (Sun, et al, (2008a) Mol. Biol. Cell 19, 3052-3069). Gel spots were manually excised and automatically processed for peptide mapping experiments using a Micromass MassPREP Station in conjunction with manufacturer specified protocols.
An in vitro kinase reaction was performed using unsynchronized MDA cell lysate, [[γ-^32P] Phenethyl-ATP and Aurora A-as7/TPX2 to identify novel Aurora A substrates. […] Phenethyl ATP is specific for the engineered kinase and is not accepted by wt kinases present in the cell lysate. In contrast, when AA-as7 and TPX2 were added to the cell lysate along with Phenethyl ATP, it phosphorylated several proteins. These proteins are the direct targets of Aurora A. To isolate these targets, proteins were separated using 2D gel electrophoresis, isolated and visualized by autoradiography. Radiolabeled proteins were excised from gel and subsequent to trypsin digestion the peptide cleavage products were identified by tandem mass spectrometry. Several Aurora A substrates were identified including PHLDA1, p53 and vimentin.

[5] abbreviates: AA-as7, phosphodonor as labelled.

As for `CC(C)(C)n1nc(Cc2cccc3ccccc23)c2c(N)ncnc21` [1-NM-PP1], the “colony formation in soft agar” value in assay [1] is reported as “robust colony formation”; in the assay on AA-as7-NIH3T3 cells, “completely inhibited colony formation”. Further, at wild-type Aurora A, the “inhibition of wild-type Aurora A” value is on record as “does not inhibit”. The LIMK2 level result in the assay on AA-as7-MDA cells (250 nM, 12 h, AA-as7-MDA cells) is reported as “significant decrease; also recorded: reduces LIMK2 levels”. For the same compound, the PHLDA1 level entry with AA-as7-MDA cells (12 h, AA-as7-MDA cells) was “increased”. Also, the entries for the “Aurora A levels” value in the assay with AA-as7-MDA cells and in the assay on AA-as7-MDA cells (listed as 1-NM-PP 1) were “reduces Aurora A levels significantly” and “decreased Aurora A levels; also recorded: lower Aurora A levels”, respectively. This compound also had a 50% inhibitory concentration (IC50) in assay [2] (AA-as7 kinase) of 1.7 nM.

Regarding `O=P(O)(O)OP(=O)(O)OP(=O)(O)OC[C@H]1O[C@@H](n2cnc3c(NCCc4ccccc4)ncnc32)[C@H](O)[C@@H]1O` [N^6-phenethyl ATP, N^6-(phenethyl) ATP], in assay [3], the Kcat came out at 6.2 s⁻¹, the Michaelis-Menten constant (Km) was determined as 11.4 µM and the Vmax is given as 7.44 × 10^4. In addition, in assay [2] (setting [5]), the Kcat worked out at 223 s⁻¹, the Km worked out at 11.6 µM and the Vmax was 3.02 × 10^6. Moreover, the “labelling signal in cell lysate” value in assay [4] is listed as “no signal”.
